≈ marks a conversion by molar mass, not a printed value. Read-outs that look alike come from different tables or passages of the source.
What was measured:
[1] = tested on: Staphylococcus aureus (MSSA and MRSA strains); assay: Synergy of antibiotics with Tellimagrandin II (text summary of Tables 1 to 4); type: cell-based; conditions: Table 2
Experimental: (§1) A serial of twofold dilution of the tested antibiotics (oxacillin, erythromycin, ampicillin, kanamycin, levofoxacin, vancomycin and doxycycline) was perform by Broth microdilution method to a final concentration of 2-512 μg/mL. The bacterial overnight culture was collected and re-suspended in the Muller-Hilton (M-H) broth. An aliquot of cell suspension (OD600=0.1) was prepared. The bacterial suspensions were plated in 96-well plate and incubated with test antibiotics at 37° C. in a 5% CO2 incubator (Table 1 to Table 4).
(§2) The […], […] and antagonism between two drugs was evaluated by the following formula:
(§3) [formula] The criteria of fractional inhibitory concentration index: […]

MRSA 19615 [2] = assay: Time-killing curve; type: cell-based, Staphylococcus aureus; conditions: 5 μg/mL alone
Experimental: MRSA 19615 bacteria were cultured overnight, collected and re-suspended in 25 mL MHB containing TGII and antibiotics of the indicated final concentration. To dilute the samples, samples were taken from the suspension at indicated time interval and mixed with filtered PBS, followed by spreading the diluted sample on MHA plated for two plates/each time point. Colony counts between 150 and 500 colonies in first time point was used to determine the dilution fold. Time-killing curves were calculated from colony counting and data analyzing was performed after overnight culture. Bacterial time-kill curves were constructed by plotting mean colony counts (log10 cfu/mL) versus time (FIGS. 4 and 5).

[3] = tested on: MSSA (Methicillin-susceptible Staphylococcus aureus); assay: Minimum inhibitory concentration (broth microdilution) and FIC index; type: cell-based
Experimental: as §1, §2, §3

MRSA 18271 = assay: as above; type: cell-based, Staphylococcus aureus
Experimental: as §1, §2, §3

MRSA 19615 [4] = assay: as above; type: cell-based, Staphylococcus aureus
Experimental: as §1, §2, §3

MRSA 18631 = assay: as above; type: cell-based, Staphylococcus aureus
Experimental: as §1, §2, §3

[5] = tested on: standard MRSA strain (ATCC 33591); assay: Minimum inhibitory concentration (broth microdilution); type: cell-based, Staphylococcus aureus; conditions: Staphylococcus aureus, Table 1
Experimental: as §1

[6] = tested on: 14 clinical isolated MRSA strains; assay: MIC and FIC index of oxacillin with Tellimagrandin II, clinical isolates; type: cell-based; conditions: Staphylococcus aureus
Experimental: 14 clinical isolated MRSA strains were tested with oxacillin and Tellimagrandin II (40 μg/mL) and the FIC index was calculated.
as §1, §2, §3

[7] = Table 3, MSSA, Tellimagrandin II (40 μg/ml) +
[8] = Table 3, 18271, Tellimagrandin II (40 μg/ml) +
[9] = Table 3, 19615, Tellimagrandin II (40 μg/ml) +
[10] = Table 3, 18631, Tellimagrandin II (40 μg/ml) +

`Cc1onc(-c2ccccc2)c1C(=O)N[C@@H]1C(=O)N2[C@@H]1SC(C)(C)[C@@H]2C(=O)O` [Oxacillin] was tested, and the “effect of antibiotic with Tellimagrandin II” value [1] was “synergistic effect”, the “bacterial growth, time-killing curve” value (MRSA 19615 [2]) was “failed to inhibit bacterial growth” and the MIC ([3]; Staphylococcus aureus, MSSA, Table 1, MSSA, read-out: Minimum inhibitory concentration) was 4 µg/mL. For the same compound, the MIC ([3]; Staphylococcus aureus, MSSA, Table 2, Non-drug resistant Staphylococcus aureus, with TG II 30 μg/mL, read-out: MIC) was under 2 µg/mL, the MIC ([3]; Staphylococcus aureus, MSSA, Table 2, Non-drug resistant Staphylococcus aureus, with TG II 40 μg/mL, read-out: MIC) was under 2 µg/mL and the MIC ([3]; Staphylococcus aureus, MSSA, Table 2, Non-drug resistant Staphylococcus aureus, without TG II, read-out: MIC) was 4 µg/mL. For the same compound, the MIC ([3]; Staphylococcus aureus, MSSA, Table 3, MSSA, Tellimagrandin II (40 μg/ml) −, read-out: MIC) was 4 µg/mL, the FIC ([3]; Table 2, Non-drug resistant Staphylococcus aureus, with TG II 30 μg/mL) was 0.5 and the FIC ([3]; Table 2, Non-drug resistant Staphylococcus aureus, with TG II 40 μg/mL) was 0.5. The FIC [3, 7] was 0.5, the MIC [3, 7] was 2 µg/mL and the MIC (MRSA 18271; Staphylococcus aureus, MRSA, Table 1, MRSA 18271, read-out: Minimum inhibitory concentration) was over 512 µg/mL. The MIC (MRSA 18271; Staphylococcus aureus, MRSA, Table 2, 18271, with TG II 30 μg/mL, read-out: MIC) was 32 µg/mL, the MIC (MRSA 18271; Staphylococcus aureus, MRSA, Table 2, 18271, with TG II 40 μg/mL, read-out: MIC) was 16 µg/mL and the MIC (MRSA 18271; Staphylococcus aureus, MRSA, Table 2, 18271, without TG II, read-out: MIC) was 512 µg/mL. It also gave an MIC (MRSA 18271; Staphylococcus aureus, MRSA, Table 3, 18271, Tellimagrandin II (40 μg/ml) −, read-out: MIC) of 512 µg/mL, an FIC (MRSA 18271; Table 2, 18271, with TG II 30 μg/mL) of 0.0063 and an FIC (MRSA 18271; Table 2, 18271, with TG II 40 μg/mL) of 0.0031. It also gave an FIC (MRSA 18271; [8]) of 0.031, an MIC (MRSA 18271; [8]) of 16 µg/mL and an MIC (MRSA 19615 [4]; Staphylococcus aureus, MRSA, Table 1, MRSA 19615, read-out: Minimum inhibitory concentration) of 512 µg/mL. It also gave an MIC (MRSA 19615 [4]; Staphylococcus aureus, MRSA, Table 2, 19615, with TG II 30 μg/mL, read-out: MIC) of under 2 µg/mL, an MIC (MRSA 19615 [4]; Staphylococcus aureus, MRSA, Table 2, 19615, with TG II 40 μg/mL, read-out: MIC) of 4 µg/mL and an MIC (MRSA 19615 [4]; Staphylococcus aureus, MRSA, Table 2, 19615, without TG II, read-out: MIC) of 512 µg/mL. The MIC (MRSA 19615 [4]; Staphylococcus aureus, MRSA, Table 3, 19615, Tellimagrandin II (40 μg/ml) −, read-out: MIC) was 512 µg/mL, the FIC (MRSA 19615 [4]; Table 2, 19615, with TG II 30 μg/mL) was 0.004 and the FIC (MRSA 19615 [4]; Table 2, 19615, with TG II 40 μg/mL) was 0.008. The FIC (MRSA 19615 [4]; [9]) was 0.008, the MIC (MRSA 19615 [4]; [9]) was 4 µg/mL and the MIC (MRSA 18631; Staphylococcus aureus, MRSA, Table 1, MRSA 18631, read-out: Minimum inhibitory concentration) was over 512 µg/mL. The MIC (MRSA 18631; Staphylococcus aureus, MRSA, Table 2, 18631, with TG II 30 μg/mL, read-out: MIC) was 64 µg/mL, the MIC (MRSA 18631; Staphylococcus aureus, MRSA, Table 2, 18631, with TG II 40 μg/mL, read-out: MIC) was 8 µg/mL and the MIC (MRSA 18631; Staphylococcus aureus, MRSA, Table 2, 18631, without TG II, read-out: MIC) was 512 µg/mL. For the same compound, the MIC (MRSA 18631; Staphylococcus aureus, MRSA, Table 3, 18631, Tellimagrandin II (40 μg/ml) −, read-out: MIC) was 512 µg/mL, the FIC (MRSA 18631; Table 2, 18631, with TG II 30 μg/mL) was 0.125 and the FIC (MRSA 18631; Table 2, 18631, with TG II 40 μg/mL) was 0.016. The FIC (MRSA 18631; [10]) was 0.016, the MIC (MRSA 18631; [10]) was 8 µg/mL and the MIC [5] was 512 µg/mL (≈ 1280 µM). The MIC ([6]; MRSA 1, oxacillin alone) was 512 µg/mL, the MIC ([6]; MRSA 2, oxacillin alone) was 512 µg/mL and the MIC ([6]; MRSA 3, oxacillin alone) was 512 µg/mL. The MIC ([6]; MRSA 4, oxacillin alone) was 512 µg/mL, the MIC ([6]; MRSA 5, oxacillin alone) was 512 µg/mL and the MIC ([6]; MRSA 6, oxacillin alone) was 256 µg/mL. It also gave an MIC ([6]; MRSA 7, oxacillin alone) of 256 µg/mL, an MIC ([6]; MRSA 8, oxacillin alone) of 128 µg/mL and an MIC ([6]; MRSA 9, oxacillin alone) of 128 µg/mL. It also gave an MIC ([6]; MRSA 10, oxacillin alone) of 64 µg/mL, an MIC ([6]; MRSA 11, oxacillin alone) of 64 µg/mL and an MIC ([6]; MRSA 12, oxacillin alone) of 64 µg/mL. It also gave an MIC ([6]; MRSA 13, oxacillin alone) of 64 µg/mL and an MIC ([6]; MRSA 14, oxacillin alone) of 32 µg/mL.
